Reference: patent US9637496B2, “Substituted 7-azabicycles and their use as orexin receptor modulators” (priority 2013, dated 2017)
Like-named read-outs stand apart in the source and are kept apart here.

Assays:
[1] = biological target: human orexin 1 receptor (Homo sapiens (Human), UniProt O43613); experiment: Human orexin 1 receptor radioligand binding (competitive binding, CHO membranes)
[2] = biological target: human orexin 2 receptor (Homo sapiens (Human), UniProt O43614); experiment: Human orexin 2 receptor radioligand binding ([3H]-EMPA competition, HEK293 membranes)
[3] = biological target: rat orexin 1 receptor (Rattus norvegicus (Rat), UniProt P56718); experiment: Rat orexin 1 receptor radioligand binding (competitive binding, HEK293 membranes)
[4] = human orexin 2 receptor, Table 2, averages from between 2-20 runs, read-out: hOX2 Ki
[5] = rat orexin 1 receptor, Table 2, averages from between 2-20 runs, read-out: rOX1 Ki
[6] = human orexin 1 receptor, Table 2, averages from between 2-20 runs, read-out: hOX1 Ki

Chain of human orexin 2 receptor (O43614 whole entry): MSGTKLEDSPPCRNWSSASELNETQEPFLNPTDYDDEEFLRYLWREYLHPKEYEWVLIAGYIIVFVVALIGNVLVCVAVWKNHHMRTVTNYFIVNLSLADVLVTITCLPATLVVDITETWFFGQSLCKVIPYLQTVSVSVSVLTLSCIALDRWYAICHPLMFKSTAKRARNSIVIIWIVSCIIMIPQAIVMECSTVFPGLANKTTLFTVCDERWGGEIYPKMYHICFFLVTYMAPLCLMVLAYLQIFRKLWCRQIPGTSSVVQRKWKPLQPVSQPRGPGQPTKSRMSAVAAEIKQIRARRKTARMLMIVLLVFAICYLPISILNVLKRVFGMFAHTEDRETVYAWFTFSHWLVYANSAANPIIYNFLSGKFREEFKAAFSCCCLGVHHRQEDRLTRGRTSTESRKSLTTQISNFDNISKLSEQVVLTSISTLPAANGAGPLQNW
Chain of rat orexin 1 receptor (P56718 whole entry): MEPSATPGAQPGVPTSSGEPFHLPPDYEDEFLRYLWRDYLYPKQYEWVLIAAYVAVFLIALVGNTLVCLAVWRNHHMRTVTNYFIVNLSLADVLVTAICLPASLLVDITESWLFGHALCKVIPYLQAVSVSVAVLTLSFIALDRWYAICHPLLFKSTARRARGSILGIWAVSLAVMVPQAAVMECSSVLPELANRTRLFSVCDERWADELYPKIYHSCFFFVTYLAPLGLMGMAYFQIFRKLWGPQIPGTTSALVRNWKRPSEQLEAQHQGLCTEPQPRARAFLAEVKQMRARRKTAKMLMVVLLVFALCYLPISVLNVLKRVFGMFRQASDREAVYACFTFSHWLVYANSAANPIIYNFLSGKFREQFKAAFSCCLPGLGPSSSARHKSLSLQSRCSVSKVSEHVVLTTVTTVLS
Chain of human orexin 1 receptor (O43613 whole entry): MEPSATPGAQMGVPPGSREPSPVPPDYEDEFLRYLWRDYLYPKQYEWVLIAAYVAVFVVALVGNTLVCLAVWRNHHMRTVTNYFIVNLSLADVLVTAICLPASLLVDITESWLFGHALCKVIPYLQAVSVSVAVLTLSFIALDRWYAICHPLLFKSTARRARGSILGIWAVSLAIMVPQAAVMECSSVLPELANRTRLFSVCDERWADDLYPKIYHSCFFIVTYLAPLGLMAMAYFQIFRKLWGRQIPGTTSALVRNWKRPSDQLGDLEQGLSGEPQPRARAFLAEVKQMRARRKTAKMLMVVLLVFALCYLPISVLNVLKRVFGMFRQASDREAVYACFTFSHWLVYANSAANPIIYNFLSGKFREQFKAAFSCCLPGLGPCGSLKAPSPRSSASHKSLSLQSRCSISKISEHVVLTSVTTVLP

| SMILES | Ki [1] [nM] | Ki [3] [nM] | Ki [2, 4] [nM] | Ki [3, 5] [nM] | Ki [1, 6] [nM] | Ki [2] [nM] | further results |
| --- | --- | --- | --- | --- | --- | --- | --- |
| O=C(c1cc(F)ccc1-n1nccn1)N1C2CCC1C(COc1ccc(F)cn1)C2 (racemic) [Example 30, (±)-(5-fluoro-2-(2H-1,2,3-triazol-2-yl)phenyl)(2-(((5-fluoropyridin-2-yl)oxy)methyl)-7-azabicyclo[2.2.1]heptan-7-yl)methanone] | 60 |  |  |  |  |  | Ki ([2]; human orexin 2 receptor, Table 2, averages of 2-20 runs, read-out: hOX2 Ki): 160 nM |
| O=C(c1ccccc1-n1nccn1)N1C2CCC1C(Oc1ccc(C(F)(F)F)cn1)C2 (racemic) [Example 421] | 154 | 205 | 4200 |  |  |  |  |
| Cc1cccc(C(=O)N2C3CCC2C(Oc2ccc(C(F)(F)F)cn2)C3)c1-n1nccn1 (racemic) [Example 422] |  |  | 2150 | 91 | 57 |  |  |
| O=C(c1cccc(F)c1-n1nccn1)N1C2CCC1C(Oc1ccc(C(F)(F)F)cn1)C2 (racemic) [Example 423] | 174 | 202 |  |  |  | 4870 |  |
| O=C(c1cccc(F)c1-c1ncccn1)N1C2CCC1C(Oc1ccc(C(F)(F)F)cn1)C2 (racemic) [Example 429] | 120 | 77 | 6300 |  |  |  |  |
| O=C(c1ccc(F)cc1-c1ncccn1)N1C2CCC1C(Oc1ccc(C(F)(F)F)cn1)C2 (racemic) [Example 430] |  |  | > 10000 | 245 | 300 |  |  |
| O=C(c1c(F)cccc1-c1ncccn1)N1C2CCC1C(Oc1ccc(C(F)(F)F)cn1)C2 (racemic) [Example 431] | 180 | 143 |  |  |  | 5100 |  |
| O=C(c1ccccc1-c1ncccn1)N1C2CCC1C(Oc1ccc(C(F)(F)F)cn1)C2 (racemic) [Example 432] |  |  | 6000 | 147 | 307 |  |  |
| O=C(c1ccccc1-c1ncc(F)cn1)N1C2CCC1C(Oc1ccc(C(F)(F)F)cn1)C2 (racemic) [Example 433] | 73 | 107 | 2500 |  |  |  |  |
| O=C(c1cccc(F)c1-c1ncc(F)cn1)N1C2CCC1C(Oc1ccc(C(F)(F)F)cn1)C2 (racemic) [Example 434] | 172 | 134 |  |  |  | > 10000 |  |
| Cc1cccc(C(=O)N2C3CCC2C(Oc2ccc(C(F)(F)F)cn2)C3)c1-c1ncco1 (racemic) [Example 435] | 29 | 50 |  |  |  | 520 |  |
| O=C(c1cccc(F)c1-c1ncco1)N1C2CCC1C(Oc1ccc(C(F)(F)F)cn1)C2 (racemic) [Example 436] |  |  |  | 143 | 116 | 3500 |  |
| O=C(c1cccc(F)c1-n1nccn1)N1C2CCC1C(Oc1ccc(Br)cn1)C2 (racemic) [Example 440] |  |  | 6000 | 118 | 100 |  |  |
| Cc1cccc(C(=O)N2C3CCC2C(Oc2cnc(C(F)(F)F)cn2)C3)c1-n1nccn1 (racemic) [Example 444] | 237 | 165 |  |  |  | 4200 |  |
| O=C(c1cccc(F)c1-c1ncccn1)N1[C@@H]2CC[C@H]1[C@H](Nc1cnc(C(F)(F)F)cn1)C2 [Example 238, (3-fluoro-2-(pyrimidin-2-yl)phenyl)((1S,2R,4R)-2-((5-(trifluoromethyl)pyrazin-2-yl)amino)-7-azabicyclo[2.2.1]heptan-7-yl)methanone] | 15 | 15 |  |  |  | 763 |  |
| O=C(c1cccc(F)c1-c1ncccn1)N1[C@@H]2CC[C@H]1[C@H](Nc1ccc(C(F)(F)F)cn1)C2 [Example 279, (3-fluoro-2-(pyrimidin-2-yl)phenyl)((1S,2R,4R)-2-((5-(trifluoromethyl)pyridin-2-yl)amino)-7-azabicyclo[2.2.1]heptan-7-yl)methanone] | 9 | 18 |  |  |  | 990 |  |
| O=C(c1cccc(F)c1-c1ncco1)N1[C@@H]2CC[C@H]1[C@H](Nc1ccc(C(F)(F)F)cn1)C2 [Example 298, (3-fluoro-2-(oxazol-2-yl)phenyl)((1S,2R,4R)-2-((5-(trifluoromethyl)pyridin-2-yl)amino)-7-azabicyclo[2.2.1]heptan-7-yl)methanone] |  |  | 500 | 18 | 18 |  |  |
| Cc1cccc(C(=O)N2[C@@H]3CC[C@H]2[C@H](Nc2ccc(C(F)(F)F)cn2)C3)c1-c1ncccn1 [Example 299, (3-methyl-2-(pyrimidin-2-yl)phenyl)((1S,2R,4R)-2-((5-(trifluoromethyl)pyridin-2-yl)amino)-7-azabicyclo[2.2.1]heptan-7-yl)methanone] |  |  | 234 | 16 | 7 |  |  |
| O=C(c1cccc(Cl)c1-c1ncccn1)N1[C@@H]2CC[C@H]1[C@H](Nc1cnc(C(F)(F)F)cn1)C2 [Example 300, (3-chloro-2-(pyrimidin-2-yl)phenyl)((1S,2R,4R)-2-((5-(trifluoromethyl)pyrazin-2-yl)amino)-7-azabicyclo[2.2.1]heptan-7-yl)methanone] |  |  | 93 |  |  |  | Ki ([3]; read-out: rOX1 Ki): 9 nM; Ki ([1]; read-out: hOX1 Ki): 9 nM |
| Cc1cccc(C(=O)N2[C@@H]3CC[C@H]2[C@H](Nc2ccc(Br)cn2)C3)c1-c1ncco1 [Example 302, ((1S,2R,4R)-2-((5-bromopyridin-2-yl)amino)-7-azabicyclo[2.2.1]heptan-7-yl)(3-methyl-2-(oxazol-2-yl)phenyl)methanone] |  |  | 188 |  |  |  | Ki ([3]; read-out: rOX1 Ki): 5 nM; Ki ([1]; read-out: hOX1 Ki): 5 nM |
| O=C(c1cccc(F)c1-c1ncccn1)N1C2CCC1C(Nc1ccc(Br)cn1)C2 [Example 303, ((1S,2R,4R)-2-((5-bromopyridin-2-yl)amino)-7-azabicyclo[2.2.]heptan-7-yl)(3-fluoro-2-(pyrimidin-2-yl)phenyl)methanone] |  |  | 1300 |  |  |  | Ki ([3]; read-out: rOX1 Ki): 22 nM; Ki ([1]; read-out: hOX1 Ki): 16 nM |
| Cc1cccc(C(=O)N2[C@@H]3CC[C@H]2[C@H](Nc2ccc(Br)cn2)C3)c1-c1ncccn1 [Example 304, ((1S,2R,4R)-2-((5-bromopyridin-2-yl)amino)-7-azabicyclo[2.2.1]heptan-7-yl)(3-methyl-2-(pyrimidin-2-yl)phenyl)methanone] |  |  | 455 | 12 | 16 |  |  |
| O=C(c1cccc(F)c1-n1nccn1)N1[C@@H]2CC[C@H]1[C@H](Nc1ccc(Br)cn1)C2 [Example 305, ((1S,2R,4R)-2-((5-bromopyridin-2-yl)amino)-7-azabicyclo[2.2.1]heptan-7-yl)(3-fluoro-2-(2H-1,2,3-triazol-2-yl)phenyl)methanone] |  |  | 980 |  |  |  | Ki ([3]; read-out: rOX1 Ki): 24 nM; Ki ([1]; read-out: hOX1 Ki): 12 nM |
| Cc1cccc(C(=O)N2[C@@H]3CC[C@H]2[C@H](Nc2ccc(Br)cn2)C3)c1-n1nccn1 [Example 306, ((1S,2R,4R)-2-((5-bromopyridin-2-yl)amino)-7-azabicyclo[2.2.1]heptan-7-yl)(3-methyl-2-(2H-1,2,3-triazol-2-yl)phenyl)methanone] |  |  | 396 |  |  |  | Ki ([3]; read-out: rOX1 Ki): 11 nM; Ki ([1]; read-out: hOX1 Ki): 4 nM |
| Cc1cccc(C(=O)N2C3CCC2C(Nc2cnc(Br)cn2)C3)c1-c1ncco1 [Example 308, ((1S,2R,4R)-2-((5-bromopyrazin-2-yl)amino)-7-azabicyclo[2.2.]heptan-7-yl)(3-methyl-2-(oxazol-2-yl)phenyl)methanone] |  |  | 173 | 6 | 4 |  |  |
| Cc1ccc(-c2ncccn2)c(C(=O)N2[C@@H]3CC[C@H]2[C@H](Nc2ccc(C(F)(F)F)cn2)C3)n1 [Example 379, (6-methyl-3-(pyrimidin-2-yl)pyridin-2-yl)((1S,2R,4R)-2-((5-(trifluoromethyl)pyridin-2-yl)amino)-7-azabicyclo[2.2.1]heptan-7-yl)methanone] |  |  |  |  |  |  | Ki ([3]; read-out: rOX1 Ki): 25 nM; Ki ([1]; read-out: hOX1 Ki): 24 nM |
